Consider five molecules from patent US10995054B2, “Hyperpolarized [3-13C]acetoacetate and methods of using the same” (Agency for Science, Technology and Research, priority 2016, dated 2021).

Several values for one entry are separate records, joined by “and”; a condition that tells them apart may be missing. Equal values may be shown once. Read-outs that look alike come from different tables or passages of the source.

Data set [1] can be described thus: Hyperpolarization (DNP) and lifetime of [3-13C]acetoacetate. It is filed as physicochemical. As to the method: Approximately 51 mg of [3-^13C]acetoacetate, doped with 5.5 mg of trityl-radical (OX063, GE Healthcare), 250 μl of gadoterate meglumine (1.2 mmol/L, Dotarem®, Guerbet) and […] of DMSO (25% v/v) was prepared. Total volume is approximately […], resulting in 1.23 mol/L of [3-^13C]acetoacetate, 9.3 mmol/L of OX063, and 0.80 mmol/L of gadolinium. […] of the sample was hyperpolarized in a polarizer (Hypersense, Oxford Instruments, Oxford, UK), with 120 min of microwave irradiation at 94.097 GHz. The polarized sample was subsequently dissolved in 3 mL of pressurized and heated Tris-EDTA buffer with pH 7.80, to yield a solution of 80 mmol/L hyperpolarized [3-^13C]acetoacetate with a polarization of 10% and physiological temperature and pH.
The Examiner first determined whether the synthesized [3-^13C]acetoacetate can be hyperpolarized with sufficient polarization and lifetime for in vivo application. After 120 minutes of microwave irradiation at 1.2 K, the achieved polarization was 10.3±1.2% and T1 was 28.2±3.1 s. Besides the main substrate peak at 209.9 ppm and the natural abundance [1-^13C]acetoacetate at 174.6 ppm, an impurity peak was detected at 181.0 ppm. The amplitude of the impurity peak is 0.19±0.01% of the [3-^13C]acetoacetate signal. The impurity peak is very close to the expected [5-^13C]glutamate peak at 181.2 ppm (FIG. 2B). […]

Data set [2] relates to myocardial ketone body utilization. Briefly: Ketone body utilization in the heart in vivo measured by hyperpolarized 13C-MRS. More on the design: species or system rat. The source says:
Male non-obese diabetic Goto-Kakizaki (GK/MolTac; n=10) rats bred by Taconic (New York, US) were ordered from InVivos (Singapore). Male wild-type Wistar Han rats (n=10) were purchased from InVivos (Singapore) and served as controls. At 24 weeks of age, the animals underwent ^13C MRS and MRI to determine myocardial ketone body utilization and cardiac function. The animals were anaesthetized with isoflurane (3% for induction; 1.5-2% for maintenance) in medical air and oxygen at a flow rate of 2.0 L/min and 0.5 L/min, respectively. A catheter was inserted into the tail vein for intravenous administration of the hyperpolarized [3-^13C] acetoacetate inside the MRI scanner. At the end of the study, the animals were sacrificed. Blood and organs were collected and stored at −80° C. for biochemical analysis. All procedures involving animals were approved by A*STAR Institutional Animal Care and Use Committee (#171204)
Rats were positioned supine in a 9.4 T horizontal bore MR scanner interfaced to a Avance III HD console (Biospec, Bruker, Germany), with the heart directly above a dual-tuned (^1H/^13C) rat surface coil (diameter: 30 mm). Correct positioning was confirmed by the acquisition of an axial proton FLASH image (TE/TR, 8.0/100.0 ms; matrix size, 128×128; FOY, 40×40 mm; slice thickness, 1.5 mm; excitation flip angle, 30°). A cardiac-triggered and respiratory-gated shim was used to reduce the proton linewidth to approximately 160 Hz. Immediately before injection, a respiratory-gated ^13C MR pulse-acquire spectroscopy sequence was initiated. Then, hyperpolarized [3-^13C]acetoacetate (0.75-1.05 mL; 0.240 mmol/kg body weight) was injected via tail vein at a rate of 6 mL/min. Sixty individual heart spectra were acquired over 2 minutes after injection (TR, 2 s; excitation flip angle, 25°; sweep width, 8,000 Hz; acquired points, 4,096; frequency centered at 190 ppm from tetramethylsilane (TMS) standard).
Cardiac ^13C MR spectra were analyzed using the AMARES algorithm as implemented in the jMRUI software package (Naressi A, et al. Magn Reson Mater Physics, Biol Med. 2001; 12:141). Spectra were baseline and DC offset-corrected based on the last half of acquired points. To quantify myocardial ketone metabolism, spectra were summed over the first 30 seconds upon acetoacetate arrival. Peaks corresponding to [3-^13C]acetoacetate and its metabolic derivatives [5-^13C]glutamate, [1-^13C]acetoacetate, and [1-^13C]acetylcarnitine were fitted with prior knowledge assuming a Lorentzian line shape, peak frequencies, relative phases, and linewidths. The fitted amplitudes were then normalized to the amplitude of [3-^13C]acetoacetate.

For data set [3] the following is noted: 0.240 mmol/kg i.v.
The test system of another data set is insulin secretion. The settings on record: infusion in man, concentration higher than 2 mM; cited from earlier work.
The target in data set [4] is T1, sodium/glucose co-transporter-2 (SGLT-2) (Homo sapiens, UniProt P31639).
T1 construct: host or cells: diabetic patients (in vivo)
T1 sequence (P31639 1-672): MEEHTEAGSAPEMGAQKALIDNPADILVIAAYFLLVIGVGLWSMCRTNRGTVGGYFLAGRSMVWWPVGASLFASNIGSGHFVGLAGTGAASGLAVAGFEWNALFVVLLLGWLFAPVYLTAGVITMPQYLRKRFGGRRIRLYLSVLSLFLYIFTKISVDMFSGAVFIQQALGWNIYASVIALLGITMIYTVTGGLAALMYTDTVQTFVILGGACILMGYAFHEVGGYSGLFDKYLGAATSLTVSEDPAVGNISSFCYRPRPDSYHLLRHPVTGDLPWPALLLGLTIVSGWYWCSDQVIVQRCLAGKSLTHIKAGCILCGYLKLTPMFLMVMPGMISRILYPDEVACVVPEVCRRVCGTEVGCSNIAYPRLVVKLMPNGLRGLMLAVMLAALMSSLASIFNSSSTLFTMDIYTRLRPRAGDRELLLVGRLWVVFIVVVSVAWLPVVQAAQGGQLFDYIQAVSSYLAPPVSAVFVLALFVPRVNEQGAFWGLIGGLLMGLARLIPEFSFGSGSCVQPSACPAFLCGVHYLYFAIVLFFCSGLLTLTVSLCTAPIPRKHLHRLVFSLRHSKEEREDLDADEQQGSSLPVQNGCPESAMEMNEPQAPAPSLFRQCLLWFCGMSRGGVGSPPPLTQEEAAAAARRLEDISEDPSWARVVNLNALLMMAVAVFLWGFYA
Particulars: cited from earlier work.

The test system of another data set is myocardial infarct. The settings on record: fasted rats, ischemia-reperfusion; cited from earlier work.
A further data set deals with blood glucose. Briefly: Intraperitoneal insulin tolerance test (IpITT). Type of data set: in vivo, rat. The settings on record: diabetic GK rats, insulin 1 U/kg i.p. As to the method: The response to insulin glucose tolerance was determined by measuring the blood glucose levels before and at 60, 120, 180, 240, 300, and 360 minutes after intraperitoneal injection of insulin solution (1 U/kg body weight).

Where [5] appears, read: diabetic GK vs control rats, P=0.002.
The mark [6] stands for this setting: rat heart, i.v., 13C MRS time resolution 2 s.

Take `C[13C](=O)CC(=O)[O-].[Li+]` [[3-^13C]acetoacetate, lithium [3-^13C]acetoacetate]: the achieved polarization in data set [1] (120 min microwave irradiation at 1.2 K, DNP) is 10.3±1.2% and 10%. In data set [1] (after 120 min microwave irradiation at 1.2 K), this molecule came in with a T1 of 28.2 ± 3.1 s. Besides, the “production of [3-13C]β-OHB” value in data set [2] (diabetic GK vs control rats, P=0.001) was “lower in diabetic rats than in control rats”. In data set [2] (setting [5]), the “production of [5-13C]glutamate” value is reported as “higher in the diabetic rats than in controls” and the “total production of [5-13C]glutamate+[1-13C]citrate” value was “also higher in the diabetic rats compared with controls”. In addition, in data set [2] (diabetic GK vs control rats, normalized to [3-13C]acetoacetate, P=0.009), the “total products of ketone body utilization ([5-13C]glutamate+[1-13C]acetylcarnitine)” value was “higher in the diabetic rats compared with controls”. Further, in data set [2] (rat heart in vivo, i.v. injection), the “[5-13C]glutamate metabolite signal, relative to [3-13C]acetoacetate signal” value is 2-4 % of the [3-13C]acetoacetate s. In addition, in data set [2] (setting [6]), the “appearance of 13C label in [1-13C]acetylcarnitine and [5-13C]glutamate after acetoacetate peaks” value is 2 to 4 s; the “appearance of [1-13C]citrate” value is 8 to 10 s. Moreover, the “calculated acetoacetate concentration in the blood after injection” value in data set [3] (GK rats) is 4.30 mM. Besides, the “calculated acetoacetate concentration in the blood after injection” value in data set [3] (control rats) is reported as 4.27 mM.

`CC(=O)CC(=O)O` [acetoacetate]: in the data set on insulin secretion, the “effect on insulin secretion” value is reported as “transient stimulatory effect on insulin secretion” and the “time after which the effect on insulin secretion abates” value was 10 to 15 min.

In the case of `OC[C@H]1O[C@@H](c2ccc(Cl)c(Cc3ccc(O[C@H]4CCOC4)cc3)c2)[C@H](O)[C@@H](O)[C@@H]1O` [empagliflozin], the “plasma ketone body concentration” value in data set [4] (after empagliflozin treatment) is recorded as “increase in plasma ketone body concentration”. In data set [4] (diabetic patients), the cardiovascular outcome is recorded as “improved cardiovascular outcome”.

Consider `CC(O)CC(=O)O` (stereo not drawn) [β-OHB, β-hydroxybutyrate], for which the “myocardial infarct size and apoptosis” value in the data set on myocardial infarct is “reduced myocardial infarct size and apoptosis”.

Take “insulin: insulin solution injected intraperitoneally in the insulin tolerance test”: the “blood glucose during insulin tolerance test” value with blood glucose is reported as “lowered blood glucose”.
